From ChEMBL document CHEMBL4742401, “Cyclin-dependent kinase inhibitors and methods of use” (2019)
pIC50: −log10 of the molar value.

Biological target: T1, Cyclin-dependent kinase 8 (Homo sapiens, UniProt P49336)
Test: Inhibition of CDK8 (unknown origin) by competitive kinase binding based Lantha-screen Eu kinase binding assay

T1 sequence (P49336 whole entry): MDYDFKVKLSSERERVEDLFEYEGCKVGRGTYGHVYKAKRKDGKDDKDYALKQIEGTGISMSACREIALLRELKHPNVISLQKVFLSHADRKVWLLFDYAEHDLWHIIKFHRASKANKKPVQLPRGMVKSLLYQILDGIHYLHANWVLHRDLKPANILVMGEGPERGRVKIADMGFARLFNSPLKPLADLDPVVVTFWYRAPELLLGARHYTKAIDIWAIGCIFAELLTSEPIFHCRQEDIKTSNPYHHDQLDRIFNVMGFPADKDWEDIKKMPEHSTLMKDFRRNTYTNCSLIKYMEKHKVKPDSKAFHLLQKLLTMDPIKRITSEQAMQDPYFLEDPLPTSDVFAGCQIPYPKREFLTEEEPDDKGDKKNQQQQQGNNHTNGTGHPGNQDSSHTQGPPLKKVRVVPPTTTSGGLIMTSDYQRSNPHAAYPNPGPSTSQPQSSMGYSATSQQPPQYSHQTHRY

**Q.** How did the pIC50 turn out when `C[C@]12CC[C@H](O)CC1=CC[C@@H]1[C@@H]2CC[C@]2(C)C(c3ccc4ccncc4c3)=CC[C@@H]12` was run?
**A.** 7.00

**Q.** How did the pIC50 turn out when `C[C@]12CC[C@H]3[C@@H](CC=C4C[C@@H](O)CC[C@@]43C)[C@@H]1CC[C@@H]2c1ccc2ccncc2c1` was run?
**A.** ≥ 7.00

**Q.** `CN(C)[C@H]1CC[C@@]2(C)[C@@H](CC[C@@H]3[C@@H]2CC[C@]2(C)[C@@H](c4ccc5ccncc5c4)CC[C@@H]32)C1` was tested. Which pIC50 did it give?
**A.** ≥ 7.00

**Q.** With `C[C@]12CC[C@H]3[C@@H](CC=C4C[C@@H](O)CC[C@@]43C)[C@@H]1CC[C@@H]2c1ccc2cnccc2c1` as the compound, how does the pIC50 read?
**A.** 5.70

**Q.** `CC(=O)N(C)[C@H]1CC[C@@]2(C)[C@@H](CC[C@@H]3[C@@H]2CC[C@]2(C)[C@@H](c4ccc5ccncc5c4)CC[C@@H]32)C1` was tested. Which pIC50 did it give?
**A.** ≥ 7.00

**Q.** How did the pIC50 turn out when `C[C@]12CC[C@H]3[C@@H](CC=C4C[C@@H](O)CC[C@@]43C)[C@@H]1CC[C@@H]2c1ccc2c(N)n[nH]c2c1` was run?
**A.** 6.52

**Q.** `CN(C)[C@@H]1CC[C@@]2(C)[C@@H](CC[C@@H]3[C@@H]2CC[C@]2(C)[C@@H](c4ccc5ccncc5c4)CC[C@@H]32)C1` was tested. Which pIC50 did it give?
**A.** ≥ 7.00

**Q.** How did the pIC50 turn out when `C[C@]12CC[C@H](O)C[C@@H]1CC[C@@H]1[C@@H]2CC[C@]2(C)[C@@H](c3ccc4ccncc4c3)CC[C@@H]12` was run?
**A.** 6.70

**Q.** `C[C@]12CC[C@H]3[C@@H](CC=C4C[C@@H](O)CC[C@@]43C)[C@@H]1CC[C@@H]2c1ccc2cn[nH]c2c1` was tested. Which pIC50 did it give?
**A.** ≤ 5.22

**Q.** How did the pIC50 turn out when `C[C@]12CC[C@H](N3CCOCC3)C[C@@H]1CC[C@@H]1[C@@H]2CC[C@]2(C)[C@@H](c3ccc4ccncc4c3)CC[C@@H]12` was run?
**A.** 7.00

**Q.** `C[C@]12CC[C@H]3[C@@H](CC=C4C[C@@H](O)CC[C@@]43C)[C@@H]1CC[C@@H]2c1ccc2cnncc2c1` was tested. Which pIC50 did it give?
**A.** ≤ 5.22

**Q.** `CN(C)[C@H]1CC[C@@]2(C)[C@@H](CC[C@@H]3[C@@H]2CC[C@]2(C)C(c4ccc5ccncc5c4)=CC[C@@H]32)C1` was tested. Which pIC50 did it give?
**A.** 7.00

**Q.** `C[C@]12CC[C@H](O)CC1=CC[C@@H]1[C@@H]2CC[C@]2(C)C(c3ccc4nc(N)ncc4c3)=CC[C@@H]12` was tested. Which pIC50 did it give?
**A.** 5.70

**Q.** With `C[C@]12CC[C@H]3[C@@H](CC=C4C[C@@H](O)CC[C@@]43C)[C@@H]1CC[C@@H]2c1ccc2[nH]ncc2c1` as the compound, how does the pIC50 read?
**A.** ≤ 5.22

**Q.** How did the pIC50 turn out when `C[C@]12CC[C@H](O)CC1=CC[C@@H]1[C@@H]2CC[C@]2(C)C(c3ccc4[nH]ncc4c3)=CC[C@@H]12` was run?
**A.** ≤ 5.22

**Q.** How did the pIC50 turn out when `CN(C)[C@@H]1CC[C@@]2(C)[C@@H](CC[C@@H]3[C@@H]2CC[C@]2(C)C(c4ccc5ccncc5c4)=CC[C@@H]32)C1` was run?
**A.** 6.70

**Q.** How did the pIC50 turn out when `CN[C@H]1CC[C@@]2(C)[C@@H](CC[C@@H]3[C@@H]2CC[C@]2(C)[C@@H](c4ccc5ccncc5c4)CC[C@@H]32)C1` was run?
**A.** 6.15

**Q.** With `C[C@]12CC[C@H](O)CC1=CC[C@@H]1[C@@H]2CC[C@]2(C)C(c3ccc4cnccc4c3)=CC[C@@H]12` as the compound, how does the pIC50 read?
**A.** ≤ 5.22

**Q.** `C[C@]12CC[C@H](n3ccnn3)C[C@@H]1CC[C@@H]1[C@@H]2CC[C@]2(C)[C@@H](c3ccc4ccncc4c3)CC[C@@H]12` was tested. Which pIC50 did it give?
**A.** ≥ 7.00

**Q.** `CN(C)[C@H]1CC[C@@]2(C)C(=CC[C@H]3[C@@H]4CC[C@H](c5ccc6ccncc6c5)[C@@]4(C)CC[C@@H]32)C1` was tested. Which pIC50 did it give?
**A.** ≥ 7.00

**Q.** With `C[C@]12CC[C@H](O)CC1=CC[C@@H]1[C@@H]2CC[C@]2(C)C(c3ccc4cnncc4c3)=CC[C@@H]12` as the compound, how does the pIC50 read?
**A.** ≤ 5.22

**Q.** How did the pIC50 turn out when `C[C@]12CC[C@H](O)CC1=CC[C@@H]1[C@@H]2CC[C@]2(C)C(c3ccc4cn[nH]c4c3)=CC[C@@H]12` was run?
**A.** ≤ 5.22

**Q.** `C[C@]12CC[C@H]3[C@@H](CC=C4C[C@@H](O)CC[C@@]43C)[C@@H]1CC[C@@H]2c1ccc2nc(N)ncc2c1` was tested. Which pIC50 did it give?
**A.** 7.00

**Q.** How did the pIC50 turn out when `C[C@]12CC[C@H](O)C[C@@H]1CC[C@@H]1[C@@H]2CC[C@]2(C)C(c3ccc4ccncc4c3)=CC[C@@H]12` was run?
**A.** 6.15

**Q.** `C[C@]12CC[C@H](O)CC1=CC[C@@H]1[C@@H]2CC[C@]2(C)C(c3ccc4c(N)n[nH]c4c3)=CC[C@@H]12` was tested. Which pIC50 did it give?
**A.** 6.15

Biological target: T2, Serine/threonine-protein kinase Nek1 (Homo sapiens, UniProt Q96PY6)
T2 sequence (Q96PY6 whole entry): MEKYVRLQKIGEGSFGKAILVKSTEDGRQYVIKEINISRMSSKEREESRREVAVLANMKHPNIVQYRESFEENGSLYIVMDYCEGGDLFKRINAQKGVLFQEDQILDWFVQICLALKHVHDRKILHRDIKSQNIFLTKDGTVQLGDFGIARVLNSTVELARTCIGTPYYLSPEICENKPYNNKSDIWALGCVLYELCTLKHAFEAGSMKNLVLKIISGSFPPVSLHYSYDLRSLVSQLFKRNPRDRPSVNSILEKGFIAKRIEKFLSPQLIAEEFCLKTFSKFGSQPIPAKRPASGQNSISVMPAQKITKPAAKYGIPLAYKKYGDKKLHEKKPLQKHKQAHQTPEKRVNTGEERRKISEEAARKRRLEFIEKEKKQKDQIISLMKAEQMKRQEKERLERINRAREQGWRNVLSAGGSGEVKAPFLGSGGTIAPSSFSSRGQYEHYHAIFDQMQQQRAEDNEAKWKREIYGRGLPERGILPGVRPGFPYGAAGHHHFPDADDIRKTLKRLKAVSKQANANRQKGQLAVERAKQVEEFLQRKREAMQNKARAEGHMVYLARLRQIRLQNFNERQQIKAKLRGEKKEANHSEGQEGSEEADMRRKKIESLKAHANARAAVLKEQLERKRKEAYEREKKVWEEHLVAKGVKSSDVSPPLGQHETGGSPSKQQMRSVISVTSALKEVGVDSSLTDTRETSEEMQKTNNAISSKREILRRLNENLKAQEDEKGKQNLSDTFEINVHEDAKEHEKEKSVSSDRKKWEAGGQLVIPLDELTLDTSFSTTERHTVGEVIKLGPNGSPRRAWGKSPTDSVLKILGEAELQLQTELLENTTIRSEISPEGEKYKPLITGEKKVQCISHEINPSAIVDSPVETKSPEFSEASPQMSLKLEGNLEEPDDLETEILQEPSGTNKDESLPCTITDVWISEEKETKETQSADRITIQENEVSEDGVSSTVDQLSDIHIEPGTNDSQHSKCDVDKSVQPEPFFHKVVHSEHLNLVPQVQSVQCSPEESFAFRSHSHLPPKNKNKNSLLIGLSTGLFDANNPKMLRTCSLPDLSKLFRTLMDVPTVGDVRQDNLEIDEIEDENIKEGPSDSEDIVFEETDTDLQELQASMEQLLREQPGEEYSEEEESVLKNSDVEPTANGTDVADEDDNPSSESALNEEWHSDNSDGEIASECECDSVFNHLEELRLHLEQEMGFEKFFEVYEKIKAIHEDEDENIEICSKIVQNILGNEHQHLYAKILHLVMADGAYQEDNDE
Test: Inhibition of NEK1 (unknown origin)

**Q.** How did the pIC50 turn out when `CN(C)[C@H]1CC[C@@]2(C)C(=CC[C@H]3[C@@H]4CC[C@H](c5ccc6ccncc6c5)[C@@]4(C)CC[C@@H]32)C1` was run?
**A.** < 5.00

Biological target: T1, Cyclin-dependent kinase 8
Test: Inhibition of CDK8 in human HepG2 cells assessed as reduction in IFNgamma-induced STATl S727 phosphorylation incubated for 18 hrs by Western blot analysis
Format: cell-based

**Q.** For `CN(C)[C@H]1CC[C@@]2(C)C(=CC[C@H]3[C@@H]4CC[C@H](c5ccc6ccncc6c5)[C@@]4(C)CC[C@@H]32)C1`, which inhibition is on record?
**A.** Dose-dependent effect
